Laboratory results from patent US11028095B2, “Spiro-lactam and bis-spiro-lactam NMDA receptor modulators and uses thereof” (Aptinyx Inc., priority 2016, dated 2021).
pEC50: −log10 of the molar value. Read-outs that look alike come from different tables or passages of the source.

Experiments:
Plasma stability (Rat) = type: in vitro ADME
Method: (§1) Plasma stability of disclosed compounds was investigated. The following table indicates the percent of compound remaining after 60 minutes.

[1] = test system: positive (hedonic) 50-kHz ultrasonic vocalizations (USVs); assay: Positive Emotional Learning (PEL) test; type: in vivo; details: rat, PO, one hour after administration
Method: Experiments were conducted as described in Burgdorf et al., “The effect of selective breeding for differential rates of 50-kHz ultrasonic vocalizations on emotional behavior in rats,” Devel. […] Rat 50-kHz ultrasonic vocalization (hedonic USVs) is a validated model for the study of positive affective state and is best elicited by rough-and-tumble play.
The PEL assay measures the acquisition of positive (hedonic) 50-kHz ultrasonic vocalizations (USVs) to a social stimulus, heterospecific rough and tumble play stimulation. Heterospecific rough-and-tumble play stimulation was administered by the experimenter's right hand. One hour after administration of test compound or vehicle negative control (0.5% sodium carboxymethyl cellulose in 0.9% sterile saline vehicle), animals received 3 min of heterospecific rough-and-tumble play that consisted of alternating 15 sec blocks of heterospecific play and 15 sec of no-stimulation. […] Frequency modulated 50-kHz USVs that occurred during each of the no-stimulation periods were quantified to measure PEL. Animals were not habituated to play stimulation before testing. Positive emotional learning was measured during the conditioned stimulus (CS) trials preceding the tickle unconditioned stimulus (UCS) trials. Animals received 15 second trials consisting of 6 CS and 6 UCS trials each (3 min total).

[2] = Microsomal stability (Rat); type: in vitro ADME; details: rat microsomes
Method: (§2) Microsomal stability of disclosed compounds was investigated. The following table indicates the percent of compound remaining after 60 minutes.

[3] = molecular target: T1, NMDAR2C expressing HEK cell membranes (Homo sapiens, UniProt Q05586+Q14957); assay: NMDAR agonist assay, [3H]MK-801 binding, NMDAR2C; type: biochemical
T1 construct: expressed in transfected cells; host or cells: HEK cells (membrane extract)
Method: (§3) (nonequilibrium conditions).
(§4) The baseline value was determined from the best fit curve of the DPM values modeled using the GraphPad program and the log(agonist) vs. response(three parameters) algorithm was then subtracted from all points in the dataset.

[4] = Microsomal stability (Human); type: in vitro ADME; details: human microsomes
Method: as §2

[5] = molecular target: T2, NMDAR2B expressing HEK cell membranes (Homo sapiens, UniProt Q05586+Q13224); assay: NMDAR agonist assay, [3H]MK-801 binding, NMDAR2B; type: biochemical; details: for pEC50: NMDAR2B: log EC50, 50 μM glutamate; for pEC50 / EC50: [3H]MK-801 binding; for EC50: read-out: NMDAR2B log EC50 (converted); for Emax: relative to 1 mM glycine
T2 construct: expressed in transfected cells; host or cells: HEK cells (membrane extract)
Method: as §3, §4

[6] = molecular target: T3, NMDAR2B expressing HEK cell membranes (Homo sapiens, UniProt Q13224); assay: NMDAR agonist assay, [3H]MK-801 binding, NMDAR2B; type: biochemical; details: 50 μM glutamate; relative to 1 mM glycine
T3 construct: expressed in transfected cells; host or cells: HEK cells (membrane extract)
Method: as §3, §4

[7] = molecular target: T4, NMDAR2D expressing HEK cell membranes (Homo sapiens, UniProt O15399+Q05586); assay: NMDAR agonist assay, [3H]MK-801 binding, NMDAR2D; type: biochemical; details: for Emax: read-out: NMDAR2D: % maximal [3H]MK-801 binding relative to 1 mM glycine; for EC50: [3H]MK-801 binding, read-out: NMDAR2D: log EC50 (converted)
T4 construct: expressed in transfected cells; host or cells: HEK cells (membrane extract)
Method: as §3, §4

Plasma stability (Human) = type: in vitro ADME
Method: as §1

[8] = molecular target: T5, NMDAR2A expressing HEK cell membranes (Homo sapiens, UniProt Q12879); assay: NMDAR agonist assay, [3H]MK-801 binding, NMDAR2A; type: biochemical; details: 50 μM glutamate; relative to 1 mM glycine
T5 construct: expressed in transfected cells; host or cells: HEK cells (membrane extract)
Method: as §3, §4

[9] = molecular target: T6, NMDAR2A expressing HEK cell membranes (Homo sapiens, UniProt Q05586+Q12879); assay: NMDAR agonist assay, [3H]MK-801 binding, NMDAR2A; type: biochemical; details: for pEC50: NMDAR2A: log EC50, 50 μM glutamate; for pEC50 / EC50: [3H]MK-801 binding; for EC50: read-out: NMDAR2A: log EC50 (converted); for Emax: relative to 1 mM glycine
T6 construct: expressed in transfected cells; host or cells: HEK cells (membrane extract)
Method: as §3, §4

[10] = Oral pharmacokinetics (plasma, brain, CSF); type: in vivo; details: Sprague Dawley rats, per os, 10 mg/kg; for AUC(0-t) / Tmax / Cmax / bioavailability: rat, plasma, po; for Tmax: normal saline, read-out: Tmax; for Cmax: read-out: Cmax
Method: In another experiment, Sprague Dawley rats were dosed per os using a normal saline formulation containing 10 mg/kg of the compounds identified in the table below. Plasma, brain, and CSF samples were analyzed at various time points over a 24 hour period. The table below summarizes the results of the oral pharmacokinetics.

IV pharmacokinetics = type: in vivo; details: rat, in vivo, 2 mg/kg, Sprague Dawley rats, normal saline; for C0: read-out: C0; for Vd: read-out: Vss
Method: Sprague Dawley rats were dosed intravenously using a normal saline formulation containing 2 mg/kg of the compounds identified in the below table. The table below summarizes the results of the IV pharmacokinetics.

[11] = read-out: NMDAR2C: % maximal [3H]MK-801 binding relative to 1 mM glycine
[12] = 50 μM glutamate, relative to 1 mM glycine, read-out: NMDAR2C A: % maximal [3H]MK-801 binding relative to 1 mM glycine
[13] = 50 μM glutamate, read-out: NMDAR2B: % maximal [3H]MK-801 binding relative to 1 mM glycine
[14] = 50 μM glutamate, relative to 1 mM glycine

T4 sequence (O15399 28-1336, other chains not shown): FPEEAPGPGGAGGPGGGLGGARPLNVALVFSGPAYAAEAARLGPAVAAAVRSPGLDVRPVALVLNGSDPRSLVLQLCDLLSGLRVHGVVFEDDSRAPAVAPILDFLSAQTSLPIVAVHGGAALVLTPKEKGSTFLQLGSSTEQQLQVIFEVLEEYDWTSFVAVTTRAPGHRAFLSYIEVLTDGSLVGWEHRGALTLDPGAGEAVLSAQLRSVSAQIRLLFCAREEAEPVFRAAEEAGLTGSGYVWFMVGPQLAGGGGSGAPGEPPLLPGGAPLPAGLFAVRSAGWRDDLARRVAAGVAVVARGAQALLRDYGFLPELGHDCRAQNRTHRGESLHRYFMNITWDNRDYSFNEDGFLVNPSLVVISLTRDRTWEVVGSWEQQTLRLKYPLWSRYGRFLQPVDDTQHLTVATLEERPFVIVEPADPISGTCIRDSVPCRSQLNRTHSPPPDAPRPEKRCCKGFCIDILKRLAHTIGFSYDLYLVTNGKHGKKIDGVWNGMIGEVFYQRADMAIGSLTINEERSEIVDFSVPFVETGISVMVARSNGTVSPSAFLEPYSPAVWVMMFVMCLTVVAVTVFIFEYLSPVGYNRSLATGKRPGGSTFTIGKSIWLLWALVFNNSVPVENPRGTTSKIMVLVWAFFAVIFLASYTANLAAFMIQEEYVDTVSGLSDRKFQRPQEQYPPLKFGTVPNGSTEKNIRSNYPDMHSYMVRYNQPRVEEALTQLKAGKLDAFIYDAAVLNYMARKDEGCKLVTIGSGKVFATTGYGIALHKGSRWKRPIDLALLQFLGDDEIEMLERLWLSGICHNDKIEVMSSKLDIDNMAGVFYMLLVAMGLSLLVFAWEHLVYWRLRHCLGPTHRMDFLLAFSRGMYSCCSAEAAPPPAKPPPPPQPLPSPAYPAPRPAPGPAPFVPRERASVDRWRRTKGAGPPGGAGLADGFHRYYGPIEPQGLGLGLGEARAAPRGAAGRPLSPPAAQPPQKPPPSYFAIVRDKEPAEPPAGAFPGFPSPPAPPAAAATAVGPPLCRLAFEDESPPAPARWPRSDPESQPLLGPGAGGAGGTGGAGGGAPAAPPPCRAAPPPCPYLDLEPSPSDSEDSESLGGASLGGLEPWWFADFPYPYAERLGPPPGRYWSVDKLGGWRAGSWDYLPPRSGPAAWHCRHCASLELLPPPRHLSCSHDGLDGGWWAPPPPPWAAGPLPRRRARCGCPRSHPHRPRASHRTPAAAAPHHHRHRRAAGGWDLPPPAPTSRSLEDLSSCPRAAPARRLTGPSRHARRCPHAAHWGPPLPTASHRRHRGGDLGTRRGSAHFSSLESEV
T6 sequence (Q12879 23-1464, other chains not shown): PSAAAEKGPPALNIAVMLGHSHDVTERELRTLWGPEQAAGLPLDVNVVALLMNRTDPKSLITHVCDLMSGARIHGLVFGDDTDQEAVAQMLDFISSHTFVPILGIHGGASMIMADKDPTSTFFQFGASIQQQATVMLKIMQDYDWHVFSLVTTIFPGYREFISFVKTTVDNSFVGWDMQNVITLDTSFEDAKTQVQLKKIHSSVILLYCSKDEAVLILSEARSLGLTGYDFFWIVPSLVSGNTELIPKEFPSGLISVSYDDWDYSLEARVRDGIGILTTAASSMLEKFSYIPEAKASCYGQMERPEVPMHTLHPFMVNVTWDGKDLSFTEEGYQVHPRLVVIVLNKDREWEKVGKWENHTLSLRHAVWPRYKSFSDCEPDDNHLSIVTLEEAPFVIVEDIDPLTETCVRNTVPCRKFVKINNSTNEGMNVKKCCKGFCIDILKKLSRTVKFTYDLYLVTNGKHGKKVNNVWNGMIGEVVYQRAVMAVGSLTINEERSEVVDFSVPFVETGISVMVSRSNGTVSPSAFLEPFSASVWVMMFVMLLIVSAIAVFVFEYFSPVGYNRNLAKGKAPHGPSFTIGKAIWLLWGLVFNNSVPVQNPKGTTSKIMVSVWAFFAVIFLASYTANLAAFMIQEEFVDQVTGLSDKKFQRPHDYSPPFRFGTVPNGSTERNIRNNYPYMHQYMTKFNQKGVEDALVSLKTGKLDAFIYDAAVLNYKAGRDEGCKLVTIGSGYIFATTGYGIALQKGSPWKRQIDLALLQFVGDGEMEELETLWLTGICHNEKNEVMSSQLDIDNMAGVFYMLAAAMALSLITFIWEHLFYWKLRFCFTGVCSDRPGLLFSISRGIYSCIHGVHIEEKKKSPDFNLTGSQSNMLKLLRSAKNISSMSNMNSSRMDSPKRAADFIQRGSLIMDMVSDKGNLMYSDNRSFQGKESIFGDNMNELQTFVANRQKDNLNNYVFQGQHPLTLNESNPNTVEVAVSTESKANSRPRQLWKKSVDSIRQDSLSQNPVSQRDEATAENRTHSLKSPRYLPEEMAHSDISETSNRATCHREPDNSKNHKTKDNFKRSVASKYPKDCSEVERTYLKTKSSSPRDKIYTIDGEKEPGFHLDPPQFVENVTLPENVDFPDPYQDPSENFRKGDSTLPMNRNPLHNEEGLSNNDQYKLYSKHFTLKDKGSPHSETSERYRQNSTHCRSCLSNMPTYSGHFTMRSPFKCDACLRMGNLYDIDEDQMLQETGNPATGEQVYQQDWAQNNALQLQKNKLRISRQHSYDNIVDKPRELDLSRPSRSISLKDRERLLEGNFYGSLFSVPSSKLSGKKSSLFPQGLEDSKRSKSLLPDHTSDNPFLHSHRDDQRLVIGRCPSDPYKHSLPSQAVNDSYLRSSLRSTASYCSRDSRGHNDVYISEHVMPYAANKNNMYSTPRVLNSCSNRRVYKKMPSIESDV
T2 sequence (Q13224 27-1484, other chains not shown): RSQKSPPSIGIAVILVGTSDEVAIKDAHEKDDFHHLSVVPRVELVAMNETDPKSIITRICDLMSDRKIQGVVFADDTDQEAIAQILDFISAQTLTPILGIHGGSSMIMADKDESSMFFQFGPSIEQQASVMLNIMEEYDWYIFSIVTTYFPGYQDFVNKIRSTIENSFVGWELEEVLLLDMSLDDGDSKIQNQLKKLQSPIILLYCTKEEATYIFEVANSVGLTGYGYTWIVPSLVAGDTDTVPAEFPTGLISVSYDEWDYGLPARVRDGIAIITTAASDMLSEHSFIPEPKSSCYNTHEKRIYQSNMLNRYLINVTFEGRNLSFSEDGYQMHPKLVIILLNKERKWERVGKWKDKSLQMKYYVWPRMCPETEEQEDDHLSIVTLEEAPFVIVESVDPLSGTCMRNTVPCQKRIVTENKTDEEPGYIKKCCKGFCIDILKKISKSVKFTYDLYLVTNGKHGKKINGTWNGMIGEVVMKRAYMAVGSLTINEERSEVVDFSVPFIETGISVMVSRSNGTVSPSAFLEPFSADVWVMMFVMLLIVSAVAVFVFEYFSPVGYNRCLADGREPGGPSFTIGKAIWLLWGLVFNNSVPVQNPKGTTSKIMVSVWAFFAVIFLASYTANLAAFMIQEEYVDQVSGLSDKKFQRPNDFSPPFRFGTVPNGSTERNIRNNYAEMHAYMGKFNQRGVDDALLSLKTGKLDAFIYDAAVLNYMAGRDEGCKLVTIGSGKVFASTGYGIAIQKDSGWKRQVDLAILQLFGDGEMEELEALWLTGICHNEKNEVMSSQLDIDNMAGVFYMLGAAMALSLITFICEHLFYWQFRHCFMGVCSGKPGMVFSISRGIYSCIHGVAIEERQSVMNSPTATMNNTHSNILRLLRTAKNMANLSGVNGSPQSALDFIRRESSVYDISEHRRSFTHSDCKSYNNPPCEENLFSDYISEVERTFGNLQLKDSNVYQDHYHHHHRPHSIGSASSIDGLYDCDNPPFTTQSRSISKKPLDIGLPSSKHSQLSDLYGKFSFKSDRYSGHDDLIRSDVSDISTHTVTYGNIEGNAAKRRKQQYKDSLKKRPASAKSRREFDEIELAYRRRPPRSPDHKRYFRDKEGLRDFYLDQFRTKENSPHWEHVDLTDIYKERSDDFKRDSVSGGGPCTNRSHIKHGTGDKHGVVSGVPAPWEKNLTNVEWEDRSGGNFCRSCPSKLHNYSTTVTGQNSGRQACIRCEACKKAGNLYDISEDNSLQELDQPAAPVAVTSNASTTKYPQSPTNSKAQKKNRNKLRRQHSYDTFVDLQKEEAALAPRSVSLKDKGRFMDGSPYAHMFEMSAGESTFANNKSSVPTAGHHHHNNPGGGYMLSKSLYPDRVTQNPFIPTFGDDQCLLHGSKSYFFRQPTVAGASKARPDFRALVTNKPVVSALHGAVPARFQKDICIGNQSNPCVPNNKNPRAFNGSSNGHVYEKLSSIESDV

## CN1C2(CCC13CNC3=O)CNC2=O (single isomer, unassigned) [AB-2, 5-methyl-2,5,8-triazadispiro[3.1.36.24]undecane-1,7-dione]
Plasma stability (Rat)
  Plasma (Rat): percent of compound remaining after 60 minutes: 83%
[1]; dose 0.001-1 mg/kg
  Max Effect (mean number of 50 kHz USVs per 15 seconds): ** (**: 11-16.9)
[2]
  Microsomal (Rat): percent of compound remaining after 60 minutes: 78%
[3]; NMDAR2C: log EC50, 50 μM glutamate, [3H]MK-801 binding
  pEC50: > 9.00
[3]; [11]
  Emax: < 100%
[4]
  Microsomal (Human): percent of compound remaining after 60 minutes: 72%
[5]
  pEC50: > 9.00
[6]
  NMDAR2B: % maximal [3H]MK-801 binding relative to 1 mM glycine: + (<100%=+)
[7]
  Emax: < 100%
Plasma stability (Human)
  Plasma (Human): percent of compound remaining after 60 minutes: 86%
[8]
  NMDAR2A: % maximal [3H]MK-801 binding relative to 1 mM glycine: − (−=0)
[9]
  pEC50: < 7.00

## C[C@@H](O)[C@H](NC(=O)C1CCC2(CNC2=O)N1)C(N)=O (single isomer, unassigned) [AQ-1]
Plasma stability (Rat)
  Plasma (Rat): percent of compound remaining after 60 minutes: 100%
[1]; dose 0.1 mg/kg, 0.1 mg/kg
  Max Effect (mean number of 50 kHz USVs per 15 seconds): ** (**: 11-16.9)
[2]
  Microsomal (Rat): percent of compound remaining after 60 minutes: 84%
[3]; [12]
  Emax: < 100%
[4]
  Microsomal (Human): percent of compound remaining after 60 minutes: 100%
[10]
  % F: 2%
  CSF Cmax: 0 ng/mL
  Brain Cmax: 0 ng/mL
[10]; Sprague Dawley
  AUC(0-t): 350 ng·h/mL
  Tmax: 49.8 min
  Cmax: 133 ng/mL
[5]; 50 μM glutamate
  EC50: < 1 nM
[5]; [13]
  Emax: < 100%
[7]; 50 μM glutamate
  EC50: < 1 nM
[7]; [14]
  Emax: < 100%
Plasma stability (Human)
  Plasma (Human): percent of compound remaining after 60 minutes: 100%
IV pharmacokinetics; Sprague Dawley, iv
  AUC(0-t): 3330 ng·h/mL
  clearance: 9.84 mL/min/kg
  half-life: 21.6 min
  C0: 6820 ng/mL
  Vd: 0.28 L/kg
[9]; 50 μM glutamate
  EC50: < 1 nM
[9]; 50 μM glutamate, read-out: NMDAR2A: % maximal [3H]MK-801 binding relative to 1 mM glycine
  Emax: < 100%

## C[C@@H](O)[C@@H](C(N)=O)N1CC2(CCC3(CN([C@H](C(N)=O)[C@@H](C)O)C3=O)N2C(=O)OC(C)(C)C)C1=O (stereo partly drawn) [BY, tert-butyl 2,8-bis((2S,3R)-1-amino-3-hydroxy-1-oxobutan-2-yl)-1,7-dioxo-2,5,8-triazadispiro[3.1.36.24]undecane-5-carboxylate]
Plasma stability (Rat)
  Plasma (Rat): percent of compound remaining after 60 minutes: 82%
[1]; dose 0.1 mg/kg
  Max Effect (mean number of 50 kHz USVs per 15 seconds): ** (**: 11-16.9)
[2]
  Microsomal (Rat): percent of compound remaining after 60 minutes: 81%
[3]; 50 μM glutamate, [3H]MK-801 binding, read-out: NMDAR2C: log EC50 (converted)
  EC50: < 1 nM
[3]; [12]
  Emax: < 100%
[4]
  Microsomal (Human): percent of compound remaining after 60 minutes: 100%
[10]
  CSF Cmax: 0 ng/mL
  Brain Cmax: 0 ng/mL
[10]; Sprague Dawley
  AUC(0-t): 486 ng·h/mL
  bioavailability: 2%
  Tmax: 49.8 min
  Cmax: 156 ng/mL
[5]; 50 μM glutamate
  EC50: < 1 nM
[5]; [13]
  Emax: > 100%
[7]; 50 μM glutamate
  EC50: > 100 nM
[7]; [14]
  Emax: 0%
Plasma stability (Human)
  Plasma (Human): percent of compound remaining after 60 minutes: 81%
IV pharmacokinetics; Sprague Dawley, iv
  AUC(0-t): 5960 ng·h/mL
  clearance: 5.6 mL/min/kg
  half-life: 38.4 min
  C0: 10200 ng/mL
  Vd: 0.15 L/kg
[9]; 50 μM glutamate
  EC50: > 100 nM

## CC(C)CN1[C@]2(CC[C@]13CNC3=O)CNC2=O [Compound AF, 5-isobutyl-2,5,8-triazadispiro[3.1.36.24]undecane-1,7-dione]
Plasma stability (Rat)
  Plasma (Rat): percent of compound remaining after 60 minutes: 90%
[1]; dose 0.001-1 mg/kg
  Max Effect (mean number of 50 kHz USVs per 15 seconds): ** (**: 11-16.9)
[2]
  Microsomal (Rat): percent of compound remaining after 60 minutes: 87%
[3]; [11]
  Emax: > 100%
[4]
  Microsomal (Human): percent of compound remaining after 60 minutes: 92%
[10]
  CSF Cmax: 2781 ng/mL
  Brain Cmax: 1313.8 ng/mL
  AUC(0-t): 16100 ng·h/mL
  bioavailability: 82%
  Tmax: 25.2 min
  Cmax: 7250 ng/mL
[5]
  pEC50: > 9.00
[5]; read-out: NMDAR2B: % maximal [3H]MK-801 binding relative to 1 mM glycine, 50 μM glutamate
  Emax: < 100%
[7]
  Emax: < 100%
Plasma stability (Human)
  Plasma (Human): percent of compound remaining after 60 minutes: 99%
IV pharmacokinetics
  AUC(0-t): 6450 ng·h/mL
  clearance: 5.2 mL/min/kg
  half-life: 299 min
  C0: 3900 ng/mL
  Vd: 0.59 L/kg
[9]
  pEC50: > 9.00
[9]; read-out: NMDAR2A: % maximal [3H]MK-801 binding relative to 1 mM glycine, 50 μM glutamate
  Emax: < 100%
